{"source": "BigSolDB 2.1", "data": [{"smiles": "C[C@H]1[C@H](OC(=O)CCC(=O)O)O[C@@H]2O[C@@]3(C)CC[C@H]4[C@H](C)CC[C@@H]1[C@@]24OO3", "values": [{"measurement": "solubility (mole fraction)", "setting": "in ethanol, 278.15 K", "value": 0.00528}, {"measurement": "solubility (mole fraction)", "setting": "in ethanol, 283.15 K", "value": 0.00575}, {"measurement": "solubility (mole fraction)", "setting": "in ethanol, 288.15 K", "value": 0.00636}, {"measurement": "solubility (mole fraction)", "setting": "in ethanol, 293.15 K", "value": 0.00709}, {"measurement": "solubility (mole fraction)", "setting": "in ethanol, 298.15 K", "value": 0.00782}, {"measurement": "solubility (mole fraction)", "setting": "in ethanol, 303.15 K", "value": 0.00854}, {"measurement": "solubility (mole fraction)", "setting": "in ethanol, 308.15 K", "value": 0.00939}, {"measurement": "solubility (mole fraction)", "setting": "in ethanol, 313.15 K", "value": 0.0102}, {"measurement": "solubility (mole fraction)", "setting": "in ethanol, 318.15 K", "value": 0.0111}, {"measurement": "solubility (mole fraction)", "setting": "in isopropanol, 278.15 K", "value": 0.00285}, {"measurement": "solubility (mole fraction)", "setting": "in isopropanol, 283.15 K", "value": 0.00336}, {"measurement": "solubility (mole fraction)", "setting": "in isopropanol, 288.15 K", "value": 0.00392}, {"measurement": "solubility (mole fraction)", "setting": "in isopropanol, 293.15 K", "value": 0.00461}, {"measurement": "solubility (mole fraction)", "setting": "in isopropanol, 298.15 K", "value": 0.00527}, {"measurement": "solubility (mole fraction)", "setting": "in isopropanol, 303.15 K", "value": 0.00609}, {"measurement": "solubility (mole fraction)", "setting": "in isopropanol, 308.15 K", "value": 0.00698}, {"measurement": "solubility (mole fraction)", "setting": "in isopropanol, 313.15 K", "value": 0.00796}, {"measurement": "solubility (mole fraction)", "setting": "in isopropanol, 318.15 K", "value": 0.00898}, {"measurement": "solubility (mole fraction)", "setting": "in methanol, 278.15 K", "value": 0.00497}, {"measurement": "solubility (mole fraction)", "setting": "in methanol, 283.15 K", "value": 0.00538}, {"measurement": "solubility (mole fraction)", "setting": "in methanol, 288.15 K", "value": 0.00606}, {"measurement": "solubility (mole fraction)", "setting": "in methanol, 293.15 K", "value": 0.00677}, {"measurement": "solubility (mole fraction)", "setting": "in methanol, 298.15 K", "value": 0.00747}, {"measurement": "solubility (mole fraction)", "setting": "in methanol, 303.15 K", "value": 0.00817}, {"measurement": "solubility (mole fraction)", "setting": "in methanol, 308.15 K", "value": 0.00906}, {"measurement": "solubility (mole fraction)", "setting": "in methanol, 313.15 K", "value": 0.00994}, {"measurement": "solubility (mole fraction)", "setting": "in methanol, 318.15 K", "value": 0.0108}, {"measurement": "solubility (mole fraction)", "setting": "in propylene glycol, 278.15 K", "value": 0.001}, {"measurement": "solubility (mole fraction)", "setting": "in propylene glycol, 283.15 K", "value": 0.00123}, {"measurement": "solubility (mole fraction)", "setting": "in propylene glycol, 288.15 K", "value": 0.00148}, {"measurement": "solubility (mole fraction)", "setting": "in propylene glycol, 293.15 K", "value": 0.00176}, {"measurement": "solubility (mole fraction)", "setting": "in propylene glycol, 298.15 K", "value": 0.00205}, {"measurement": "solubility (mole fraction)", "setting": "in propylene glycol, 303.15 K", "value": 0.00237}, {"measurement": "solubility (mole fraction)", "setting": "in propylene glycol, 308.15 K", "value": 0.00279}, {"measurement": "solubility (mole fraction)", "setting": "in propylene glycol, 313.15 K", "value": 0.0032}, {"measurement": "solubility (mole fraction)", "setting": "in propylene glycol, 318.15 K", "value": 0.00366}, {"measurement": "solubility (mole fraction)", "setting": "in water, 278.15 K", "value": "9.48e-06"}, {"measurement": "solubility (mole fraction)", "setting": "in water, 283.15 K", "value": "1.28e-05"}, {"measurement": "solubility (mole fraction)", "setting": "in water, 288.15 K", "value": "1.66e-05"}, {"measurement": "solubility (mole fraction)", "setting": "in water, 293.15 K", "value": "2.16e-05"}, {"measurement": "solubility (mole fraction)", "setting": "in water, 298.15 K", "value": "2.71e-05"}, {"measurement": "solubility (mole fraction)", "setting": "in water, 303.15 K", "value": "3.51e-05"}, {"measurement": "solubility (mole fraction)", "setting": "in water, 308.15 K", "value": "4.44e-05"}, {"measurement": "solubility (mole fraction)", "setting": "in water, 313.15 K", "value": "5.54e-05"}, {"measurement": "solubility (mole fraction)", "setting": "in water, 318.15 K", "value": "6.94e-05"}]}]}
